The assay concerns the target Protein farnesyltransferase (Homo sapiens, UniProt P49354+P49356). Put plainly: Inhibition of [3H]FPP incorporation into Ha-ras protein by Farnesyltransferase. The format is functional.

`Cc1ccc(C(=O)c2cn(Cc3c[nH]cn3)cc2-c2ccc3ccccc3c2)cc1` returned an IC50 of 2300 nM. As for `O=C(c1ccc(Oc2ccccc2)cc1)c1cn(Cc2c[nH]cn2)cc1-c1cccc2ccccc12`, the figure is 16 nM; as for `O=C(c1ccccc1)c1cn(Cc2c[nH]cn2)cc1-c1cccc2ccccc12`, 115 nM. To `O=C(c1ccccc1Br)c1cn(Cc2c[nH]cn2)cc1-c1cccc2ccccc12` belongs 88 nM. To `Cc1ccc(C(=O)c2cn(Cc3c[nH]cn3)cc2-c2c3ccccc3cc3ccccc23)cc1` belongs 470 nM; to `O=C(c1ccc(Br)cc1)c1cn(Cc2c[nH]cn2)cc1-c1cccc2ccccc12`, 32 nM.

The compound `CSCC[C@H](NC(=O)c1ccc(CNCc2c[nH]cn2)cc1-c1ccccc1C)C(=O)O` had an IC50 of 1.4 nM. Consider `Cn1cncc1Cn1cc(C(=O)c2ccc(Oc3ccccc3)cc2)c(-c2cccc3ccccc23)c1`, for which 4.6 nM corresponded to half-maximal inhibition (IC50). As to `Cc1ccc(C(=O)c2cn(Cc3c[nH]cn3)cc2-c2cccc3ccccc23)cc1`, inhibition was half-maximal at 65 nM (IC50).

For orientation: IC50 means the concentration at which inhibition is half-maximal. Higher therefore signals weaker potency in that assay.

For the origin of these results see ChEMBL document CHEMBL1133843, “3-Aryl-4-aryloyl-1-(1H-imidazol-5-yl)methylpyrrole, a novel class of farnesyltransferase inhibitors” (Bioorg Med Chem Lett, 2001).
